Data on three substances can be found in US6300311A, “Regulation of vertebrate ovarian maturation and function using growth factors” (Texas Tech University, priority 1998, dated 2001).

Several values for one entry are separate records, joined by “and”; a condition that tells them apart may be missing. Equal values may be shown once. Entries after “also recorded” stand apart in the source; their conditions may differ.

One data set relates to R55 mRNA. Nature of the data set: Rabbit ovary explant culture treated with EGF, R55 mRNA by Northern blot. The class given is cell-based. Particulars: EGF 50 ng/ml. The text has this: A method to culture pieces of ovaries from 14 d.pp. rabbits was developed, modeled after techniques used for ovaries from neonatal mice and bovine embryos. Tissue pieces (1-2 mm^3) from 14 d.pp. rabbit ovaries containing only primordial follicles were placed in cell culture inserts with 3.0 mm pores and cultured in 24-well plates with 300 microliters medium (50-50 blend of (a) F-12 Nutrient Mixture (Ham)(1×), liquid contains L-glutamine, and (b) Medium 199 (1×), liquid contains Earle's modified salts, 1.250 mg/L sodium bicarbonate, and L-glutamine.
Cultures were treated with mouse EGF (50 ng/ml) and analyzed for the level of expression of R55 mRNA. Treatment with EGF produced a 3-fold increase in amount of R55 mRNA (normalized to 28 S) as compared to controls incubated in medium alone (FIG. 3).
Ovaries were collected from 2 week old rabbits and the tissue mince into small pieces (-1 mm^3). These ovarian explants were then cultured for 6 days in the presence or absence of EGF (50 ng/ml). Total RNA was isolated and the relative amount of R55mRNA measured by Northern blot analysis. The result of 3 experiments were averaged and graphed. The level of P55 expression in the controls was defined as one. The level of expression of the epidermal growth factor treated samples was approximately 3 fold of that seen in the controls. […] This effect is due to an increase in the number of follicles being activated.

Data set [1] deals with antiserum to recombinant porcine EGF. As to conditions: radioimmunoassay with antiserum to recombinant porcine EGF; cited from earlier work.
The test system of the next data set is pig ZP proteins. The data set is described as follows: Pig ovarian explant culture with EGF, ZP proteins by protein dot blot. It counts as cell-based. As to conditions: EGF 50 ng/ml, 6 days. As for the experimental part:
For this first experiment ovaries were collected form pigs at three to five weeks of age at which the pig ovaries are very immature. The ovaries were then minced into small pieces and grown in ovarian explant cultures with or without EGF (similar to what we have done with the rabbit ovaries). After 6 days of culture the tissue was collected and in this case proteins from these samples were isolated and solubilized. The amount of total zona pellucida protein in these samples was determined using an antibody we developed in guinea pigs against total zona pellucida proteins. The amount of porcine zona pellucida proteins in these samples were determined by dot blot analysis and quantified by optical density. The relative amount of zona pellucida protein is graphed for each sample (control and EGF treated 50 ng/ml). This was done for 3 replicates.

The test system of data set [2] is pig ZP proteins in isolated primordial follicles. The data set is described as follows: Isolated pig primordial follicles cultured with EGF, ZP proteins by protein dot blot. Particulars: EGF 50 ng/ml, 6 days. It counts as cell-based. As for the experimental part:
FIG. 16 graphically presents the results of studying the effect of EGP on ZP expression in isolated primordial follicles. As in the previous experiment, ovaries were collected from immature pigs at 3 to 5 weeks of age. In this case the ovaries were minced and the follicles enzymatically separated from the connective tissues and isolated. The population of small primordial follicles were collected and grown in cell culture well inserts. These were cultured for six days in medium alone as control or in medium supplemented with 50 nanograms per ml of EGF. After 6 days of culture the follicles were collected and proteins isolated and solubilized. The amount of total zona pellucida protein in these samples was determined using an antibody developed in guinea pigs against total zona pellucida proteins. The amount of porcine zona pellucida proteins in these samples were determined by dot blot analysis and quantified by optical density. The relative amount of zona pellucida protein is graphed in FIG. 16 for each sample (control and EGF treated 50 ng/ml). This was done for 3 replicates. […] This is consistent with the hypothesis that EGF can stimulate activation of dormant primordial follicles as indicated by the expression of zona pellucida genes.

Data set [3] deals with granulosa cells from primary pig follicles. The data set is described as follows: DNA synthesis in granulosa cells from primary pig follicles. It counts as cell-based. Particulars: EGF 50 ng/ml.
Another data set concerns FSH receptors. Nature of the data set: Expression of FSH receptors in granulosa cells from antral pig follicles. It counts as cell-based. As to conditions: EGF 50 ng/ml.
The next data set deals with mini-pigs. As to conditions: minipig, in vivo; cited from earlier work.
Another data set concerns neonatal mouse ovaries. Particulars: neonatal mouse ovaries cultured in vitro; cited from earlier work.
Another data set concerns mature rats. Particulars: intravenously infused for a four-week period; cited from earlier work.
Data set [4] has as its system young female pigs. The data set is described as follows: In vivo rec-pEGF by subcutaneous osmotic pumps, Group 2 pigs, body and organ weights at necropsy.
Data set [5] has as its system young female pigs. The data set is described as follows: In vivo rec-pEGF by subcutaneous osmotic pumps, Group 1 pigs, histological evaluation of ovarian follicles. Also on record: species or system pig. As for the experimental part: Finally, FIG. 23 is a graph which confirms that in vivo administration of rec-pEGF to the Group 1 pigs, above, starting at 30 d.pp. and administered for fourteen consecutive days at a 540 μg/day dose by placement of subcutaneous osmotic pumps in each pig. Ovaries from a sub-set of Group 1 pigs were examined at 70 d.pp. when the first cohort of growing follicles is normally expected to be present. […] Data was obtained by counting the number of hematoxylin/eosin stained follicles in a counting frame (960×1400 μm), and only sections through the center of a follicle with the germinal vesicle present were used for the evaluation. Growing follicles were identified based upon the presence of at least one cuboidal layer of granulosa cells surrounding the oocyte.

Data set [6] concerns Swiss 3T3 fibroblast cells. Nature of the data set: 3T3 fibroblast proliferation assay ([H3]-thymidine incorporation). The class given is cell-based. As to conditions: quiescent Swiss 3T3 cells. As for the experimental part: In FIG. 21, the bioactivity of EGF was tested in a 3T3 fibroblast proliferation assay. EGF was added to quiescent Swiss 3T3 fibroblast cells and stimulation of fibroblast proliferation was measured by [H^3 ]-thymidine incorporation as an indicator of DNA synthesis.
On the technique in general: Dividing cells build labelled thymidine or BrdU into new DNA.

The subject of data set [7] is young female pigs. As to conditions: pig, in vivo.
The mark [8] stands for this setting: average of ten largest follicles, 540 μg/day for fourteen days.

Turning to “mouse EGF: EGF originally purified from the male mouse submaxillary gland; used in the rabbit ovary cultures (NSYPGCPSSYDGYCLNGGVCMHIESLDSYTCNCVIGYSGDRCQTRDLRWWELR; Epidermal growth factor; UniProt P01132 977-1029, looked up)”, the “increase in amount of R55 mRNA as compared to controls” value in the data set on R55 mRNA (normalized to 28S, controls in medium alone) stood at 3 fold. Moreover, the cross-reactivity in data set [1] is reported as under 1%.

With “EGF: 53-residue polypeptide that is mitogenic for a variety of cell types both in vivo and in vitro”, the “ratio of R55 to 28S optical densities from Northern blots” value with R55 mRNA (6 days, ovarian explants of 2 week old rabbits, control = 1, single experiments) was 2.87 and 3.09 and 3.28. For the same substance, the “ratio of R55 to 28S optical densities from Northern blots, average” value with R55 mRNA (6 days, average of 3 experiments, control = 1) came out at 3.08. In the data set on R55 mRNA (Northern blot), the “expression of R55 in primordial rabbit ovarian follicles (in words)” value is on record as “increased expression of R55; also recorded: significant increases in expression of R55”. The “Optical density of ZP proteins from ovarian explant cultures” value in the data set with pig ZP proteins (ovaries of pigs 3 to 5 weeks of age, single replicates) is 6355 and 6086 and 7193. The “increase in the amount of zona pellucida protein in EGF treated ovarian explants” value with pig ZP proteins (versus control) is “approximately a two fold increase”. In addition, the “Optical density of ZP proteins from ovarian explant cultures, Avg. ZP” value in the data set with pig ZP proteins (average of 3 replicates) is given as 6545. Moreover, the “Optical density of ZP proteins from cultured primordial follicles” value in data set [2] (follicles of pigs 3 to 5 weeks of age, single replicates) is 1815 and 371 and 1697. For the same substance, the “expression of zona pellucida proteins in primordial follicles (in words)” value in data set [2] (versus medium alone) is recorded as “significant increase”. In addition, in data set [2] (average of 3 replicates), the “Optical density of ZP proteins from cultured primordial follicles, Avg. ZP” value was determined as 1294. Further, in data set [3], the “DNA synthesis in granulosa cells from primary pig follicles” value was “stimulates”. The “expression of FSH receptors in granulosa cells from antral pig follicles” value in the data set with FSH receptors is “stimulates”. For the same substance, the “organ growth in mini-pigs” value in the data set on mini-pigs is “stimulate growth of heart, liver, and urinary tract”. In the data set on neonatal mouse ovaries, the “number of eggs recovered for in vitro maturation and fertilization” value is “increased the number of eggs recovered”. In the data set with mature rats, the “number of corpora lutea (CL)” value is reported as “increase in the number of corpora lutea” and the ovarian weights entry is “ovarian weights were increased”. For the same substance, in the data set with young female pigs [4] (Group 2, N = 3), the “Avg. Daily Gain” value was determined as 0.32 ± 0.06 kg/day, the “Day 14 Weight” value is reported as 4.6 ± 0.24 kg and the “Day 70 Weight” value was 22.7 ± 3.40 kg.

As for “rec-pEGF: recombinant porcine EGF expressed in a bacterial system, with 6X histidine tag and 19 vector amino acids”, in the data set on young female pigs [5] (540 μg/day for fourteen days from 30 d.pp., necropsy fourteen days post-treatment), the “greater population of growing follicles than in control or non-treated groups” value was 70%. In the data set with young female pigs [5] (540 μg/day for fourteen days from 30 d.pp., versus control or non-treated groups), the “size of ovarian follicles (in words)” value is listed as “larger ovarian follicles”. Moreover, in the data set with young female pigs [5] (540 μg/day for fourteen days from 30 d.pp., versus control group and group administered nothing), the “number of ovarian follicles at 70 d.pp. (in words)” value is reported as “significantly increased”. Moreover, in the data set on young female pigs [5] (setting [8]), the “follicle diameter greater than that of the control group” value was “over 100%” and the “follicle diameter greater than that of the group given nothing” value is recorded as “over 70%”. For the same substance, the “Stimulation of fibroblast proliferation” value in data set [6] is recorded as “comparable to that of purified mouse EGF”. The “effect on organ weights, body weights and general pathology” value in the data set on young female pigs [7] is on record as “lack of effect”. Further, the “increase in size of the ovaries” value in the data set on young female pigs [4] (600 μg/day for fourteen days from 21 d.pp., tissues collected at 10 weeks, versus control and untreated group) is on record as about 100%.
